Key:
[1] = target: T1, T84 cell TPMT (Homo sapiens, UniProt P51580); assay: DMHBA inhibition of TPMT activity, T84 cells; format: biochemical; conditions: DMHBA 0.01 μM to 10 mM
T1 construct: Cytosol from T84 cells did contain TPMT enzymatic activity; host or cells: T84 human colon carcinoma cells
T1 sequence (P51580 1-245): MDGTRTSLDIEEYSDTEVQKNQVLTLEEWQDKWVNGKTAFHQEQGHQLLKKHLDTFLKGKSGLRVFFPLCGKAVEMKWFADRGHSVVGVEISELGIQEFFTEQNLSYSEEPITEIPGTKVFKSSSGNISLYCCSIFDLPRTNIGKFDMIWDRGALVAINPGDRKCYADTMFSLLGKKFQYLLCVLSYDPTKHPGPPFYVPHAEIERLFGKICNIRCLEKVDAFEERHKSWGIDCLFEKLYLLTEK
Protocol: (§1) The University of Wisconsin Genetics Computer Group software package was used to analyze sequence information and to make comparisons between the sequence of the TPMT cDNA clone and the sequences of other cloned proteins. The GenBank Genetics Sequence Data Bank and the EMBL Nucleotide Sequence Database were used to search for nucleotide homologies, whereas the Swiss-Prot Protein Sequence Database was used to search for protein structural homologies. IC50 values were calculated with the GraphPAD Inplot program (GraphPAD, San Diego, Calif.).
(§2) TPMT activity in renal tissue was measured by the method of R. M. Weinshilboum et al., in Clin. Chim. Acta, 85, 323 (1978) as modified by L. C. Woodson et al., Biochem. Pharmacol., 32, 819 (1983) to assay the enzyme in human kidney preparations. […] Ado-Met as the methyl donor. Assay conditions for the measurement of TPMT in T84 human colon carcinoma cells and in COS-1 cells were identical with those used to measure the enzyme activity in human renal tissue. One unit of TPMT activity represented the formation of 1 nmol of 6-MMP per hr of incubation at 37° C.
T84 human colon carcinoma cells (American Type Culture Collection, Rockville, Md.) were grown to confluence in an equal volume mixture of Dulbecco's modified Eagle's medium (DMEM) and Ham's F12 media with 5% fetal calf serum. […]

[2] = test system: human liver TPMT; conditions: cited from earlier work
[3] = target: T2, human kidney TPMT (Homo sapiens, UniProt P51580); assay: DMHBA inhibition of TPMT activity, human kidney; format: biochemical; conditions: DMHBA 0.01 μM to 10 mM
T2 construct: to assay the enzyme in human kidney preparations; host or cells: human kidney
T2 sequence (P51580 1-245): T1 sequence (P51580 1-245)
Protocol: as §1
Renal tissue was obtained either during autopsy or from patients undergoing clinically indicated nephrectomies. Hepatic tissue was obtained from patients who underwent clinically indicated partial hepatectomies for the removal of primary or metastatic hepatic tumors. All tissue was obtained under guidelines approved by the Mayo Clinic Institutional Review Board. Macroscopically normal tissue was stored at -80° C., conditions under which TPMT activity is stable (C. L. Szumlanski et al., Pharmacogenetics, 2, 148 (1992); J. A. Van Loon et al., Drug Met. Disposit., 18, 632 (1990)). […]
TPMT activity in renal tissue was measured by the method of R. M. Weinshilboum et al., in Clin. Chim. […]

[4] = target: T2, human kidney TPMT; conditions: cited from earlier work
[5] = target: T3, TPMT expressed in COS-1 cells transfected with T84 cell TPMT cDNA (Homo sapiens, UniProt P51580); assay: DMHBA inhibition of TPMT activity expressed in transfected COS-1 cells; format: biochemical; conditions: COS-1 cells transfected with cDNA clone; FIG. 6
T3 sequence (P51580 1-245): T1 sequence (P51580 1-245)
Protocol: as §1, §2
Simian COS-1 cells were then plated in 100-mm dishes at a density of 1.5-1.8×10^6 cells/dish in DMEM with 10% fetal calf serum, and were allowed to grow overnight. Three dishes of cells were used for each transfection. […]

IC50 [1]: 6.6 µM | IC50 [3]: 7.8 µM
Compound: COc1cc(C(=O)O)cc(O)c1OC [DMHBA, 3,4-dimethoxy-5-hydroxybenzoic acid]
inhibition of human liver TPMT activity (in words) [2]: known to be inhibited | IC50 ([2]; read-out: DMHBA IC50): 8.5 µM | inhibition of human kidney TPMT activity (in words) [4]: known to be inhibited | IC50 value, TPMT activity expressed in COS-1 cells (in words) [5]: nearly identical to that of the TPMT present in T84 cells

Source: US5470737A, “Stably-transformed cells expressing human thiopurine methyltransferase” (priority 1994, dated 1995)
